Results as given in ChEMBL document CHEMBL1201862, “PubChem BioAssay data set” (2004).
Calls of active or inactive are those of the source.

What was measured:
[1] = target: FAD-linked sulfhydryl oxidase ALR (Homo sapiens, UniProt P55789); assay: ALR-catalysed DTT oxidation blockers – biochemical, H2O2 detection, luminescence, cherry-pick, dose response (AID 493248)
Fatty acid synthase = Fatty acid synthase (Homo sapiens, UniProt P49327); assay: inhibition of human FAS-TE enzyme activity – biochemical, kinetic fluorescence intensity, dose response (AID 624326); format: functional;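 note: rate of fluorescence rise from hydrolysis of a fluorogenic O-methyl fluorescein ester substrate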
[2] = target: NAD-dependent protein deacylase sirtuin-5, mitochondrial (Homo sapiens, UniProt Q9NXA8); assay: sirtuin-5 deacylation blockers, concentration series – biochemical, fluorescence imaging, cherry-pick, set 5, dose response (AID 720591);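 note: desuccinylation of succinyl peptide AMC substrate read as fluorescence after trypsin release; potency of inhibitors that lower fluorescence and may act on trypsin instead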
Protein Tat = target: T1, Protein Tat (Human immunodeficiency virus type 1 group M subtype B (isolate HXB2)(HIV-1), UniProt P04608); format: functional;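 note: tat binding to TAR RNA read out by fluorescence polarization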
T1 sequence (P04608 whole entry): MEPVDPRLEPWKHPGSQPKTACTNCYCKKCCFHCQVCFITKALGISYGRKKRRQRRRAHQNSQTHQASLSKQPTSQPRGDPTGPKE

Streptokinase A = target: T2, Streptokinase A (Streptococcus pyogenes serotype M1, UniProt P10520); assay: viability-normalized secreted streptokinase activity reduction – plasminogen activation absorbance, OD405, dose response (AID 1914); format: functional, Streptococcus pyogenes M1 GAS;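 note: secreted streptokinase activity via plasminogen activation per viability signal from cell pellet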
T2 sequence (P10520 whole entry): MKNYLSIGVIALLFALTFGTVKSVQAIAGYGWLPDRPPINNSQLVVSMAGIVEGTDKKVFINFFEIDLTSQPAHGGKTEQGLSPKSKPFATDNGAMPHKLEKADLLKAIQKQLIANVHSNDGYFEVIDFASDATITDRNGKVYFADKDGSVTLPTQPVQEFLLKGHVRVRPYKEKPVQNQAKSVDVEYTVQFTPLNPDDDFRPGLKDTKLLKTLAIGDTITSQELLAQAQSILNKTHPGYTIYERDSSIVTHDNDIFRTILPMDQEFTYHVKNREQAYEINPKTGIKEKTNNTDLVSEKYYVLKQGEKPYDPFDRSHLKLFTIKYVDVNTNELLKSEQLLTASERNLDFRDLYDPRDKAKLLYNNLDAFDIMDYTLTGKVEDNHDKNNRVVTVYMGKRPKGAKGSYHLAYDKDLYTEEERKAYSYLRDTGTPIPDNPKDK

Vero = assay: cells; format: functional; conditions: Chlorocebus sabaeus
Streptococcus = assay: GAS UMAA2166 growth inhibition – luminescence, BacTiterGlo, counter-screen for streptokinase expression inhibitor project, dose response (AID 1915); format: functional, organism-based;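 note: potency for reduction of bacterial viability or growth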
[3] = microbe, parasite or virus in culture; format: functional; conditions: Mycobacterium tuberculosis
[4] = test system: Streptococcus sp. 'group A'; assay: Streptococcus pyogenes SK(-)GAS viability under kanamycin – luminescence, BacTiterGlo, confirmation, counter-screen for streptokinase expression inhibitor project, dose response (AID 1900); format: functional, organism-based
[5] = target: Dual specificity tyrosine-phosphorylation-regulated kinase 1A (Rattus norvegicus, UniProt Q63470); format: biochemical, Homo sapiens
[6] = Luminescence Cell-Based Dose Confirmation HTS to Identify Activators of 5'UTR Stem-Loop Driven Alpha-Synuclein mRNA Translation in H4 Neuroglioblastoma Cells. [Related pubchem assays: 1829 (Project Summary), 1814 (Primary HTS)]; format: functional
H4 = assay: Luminescence Cell-Based Dose Response HTS to Identify Activators of 5'UTR Stem-Loop Driven Prion Protein mRNA Translation in H4 Neuroglioblastoma Cells. [Related pubchem assays: 1829 (Project Summary), 1814 (Primary HTS)]; format: functional; conditions: Homo sapiens
[7] = Luminescence Cell-Based Dose Response HTS to Identify Activators of Luciferase Translation or Activity in H4 […] Cells. [Related pubchem assays: 1829 (Project Summary), 1814 (Primary HTS)]; format: functional
[8] = target: Disintegrin and metalloproteinase domain-containing protein 17 (Homo sapiens, UniProt P78536); assay: exosite inhibitors of ADAM17, dose response, biochemical (AID 743260)
Albumin = Albumin (Bos taurus, UniProt P02769); assay: Counterscreen for inhibitors of T-cell receptor (TCR)-CD3 interaction: Fluorescence-based biochemical high throughput dose response assay to identify inhibitors of T-cell receptor (TCR)-CD3 interaction using a TAMRA-labeled BSA probe.; format: functional
[9] = NIH3T3 cell viability loss – ATP luminescence, mouse fibroblasts, counter-screen, dose response (AID 2010); format: functional, cell-based;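 note: cells exposed to compound for about 90 hours before reading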
[10] = Potency on glucagon-like peptide 1 release, dose-response in NCI-H716 cell line, half maximal inhibitory concentration (AID 1117344); format: functional, cell-based
[11] = Trypanosoma cruzi growth suppression in host cells – NIH3T3 host cells, beta-gal luminescence, confirmation (AID 2044); format: functional, cell-based;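 note: intracellular parasites grown in NIH/3T3 mouse fibroblasts as host cells; luminescent beta-galactosidase reporter signal from transgenic T. cruzi replicating inside host cells; inhibitors lower the luminescence signal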
[12] = glucagon-like peptide-1 release potency in STC-1, concentration-response, half-maximal inhibitory concentration in the STC-1 line (AID 1117345); format: functional, cell-based

NAD-dependent protein deacylase sirtuin-5, mitochondrial, sequence (Q9NXA8 whole entry): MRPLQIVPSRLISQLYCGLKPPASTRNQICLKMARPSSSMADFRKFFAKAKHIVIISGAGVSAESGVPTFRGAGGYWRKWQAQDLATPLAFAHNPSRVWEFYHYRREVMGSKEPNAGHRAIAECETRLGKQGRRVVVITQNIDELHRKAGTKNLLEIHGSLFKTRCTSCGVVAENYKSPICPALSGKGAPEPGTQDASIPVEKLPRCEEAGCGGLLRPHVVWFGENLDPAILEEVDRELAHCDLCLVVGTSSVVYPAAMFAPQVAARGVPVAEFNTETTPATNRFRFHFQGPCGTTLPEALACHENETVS
Fatty acid synthase, sequence (P49327 whole entry): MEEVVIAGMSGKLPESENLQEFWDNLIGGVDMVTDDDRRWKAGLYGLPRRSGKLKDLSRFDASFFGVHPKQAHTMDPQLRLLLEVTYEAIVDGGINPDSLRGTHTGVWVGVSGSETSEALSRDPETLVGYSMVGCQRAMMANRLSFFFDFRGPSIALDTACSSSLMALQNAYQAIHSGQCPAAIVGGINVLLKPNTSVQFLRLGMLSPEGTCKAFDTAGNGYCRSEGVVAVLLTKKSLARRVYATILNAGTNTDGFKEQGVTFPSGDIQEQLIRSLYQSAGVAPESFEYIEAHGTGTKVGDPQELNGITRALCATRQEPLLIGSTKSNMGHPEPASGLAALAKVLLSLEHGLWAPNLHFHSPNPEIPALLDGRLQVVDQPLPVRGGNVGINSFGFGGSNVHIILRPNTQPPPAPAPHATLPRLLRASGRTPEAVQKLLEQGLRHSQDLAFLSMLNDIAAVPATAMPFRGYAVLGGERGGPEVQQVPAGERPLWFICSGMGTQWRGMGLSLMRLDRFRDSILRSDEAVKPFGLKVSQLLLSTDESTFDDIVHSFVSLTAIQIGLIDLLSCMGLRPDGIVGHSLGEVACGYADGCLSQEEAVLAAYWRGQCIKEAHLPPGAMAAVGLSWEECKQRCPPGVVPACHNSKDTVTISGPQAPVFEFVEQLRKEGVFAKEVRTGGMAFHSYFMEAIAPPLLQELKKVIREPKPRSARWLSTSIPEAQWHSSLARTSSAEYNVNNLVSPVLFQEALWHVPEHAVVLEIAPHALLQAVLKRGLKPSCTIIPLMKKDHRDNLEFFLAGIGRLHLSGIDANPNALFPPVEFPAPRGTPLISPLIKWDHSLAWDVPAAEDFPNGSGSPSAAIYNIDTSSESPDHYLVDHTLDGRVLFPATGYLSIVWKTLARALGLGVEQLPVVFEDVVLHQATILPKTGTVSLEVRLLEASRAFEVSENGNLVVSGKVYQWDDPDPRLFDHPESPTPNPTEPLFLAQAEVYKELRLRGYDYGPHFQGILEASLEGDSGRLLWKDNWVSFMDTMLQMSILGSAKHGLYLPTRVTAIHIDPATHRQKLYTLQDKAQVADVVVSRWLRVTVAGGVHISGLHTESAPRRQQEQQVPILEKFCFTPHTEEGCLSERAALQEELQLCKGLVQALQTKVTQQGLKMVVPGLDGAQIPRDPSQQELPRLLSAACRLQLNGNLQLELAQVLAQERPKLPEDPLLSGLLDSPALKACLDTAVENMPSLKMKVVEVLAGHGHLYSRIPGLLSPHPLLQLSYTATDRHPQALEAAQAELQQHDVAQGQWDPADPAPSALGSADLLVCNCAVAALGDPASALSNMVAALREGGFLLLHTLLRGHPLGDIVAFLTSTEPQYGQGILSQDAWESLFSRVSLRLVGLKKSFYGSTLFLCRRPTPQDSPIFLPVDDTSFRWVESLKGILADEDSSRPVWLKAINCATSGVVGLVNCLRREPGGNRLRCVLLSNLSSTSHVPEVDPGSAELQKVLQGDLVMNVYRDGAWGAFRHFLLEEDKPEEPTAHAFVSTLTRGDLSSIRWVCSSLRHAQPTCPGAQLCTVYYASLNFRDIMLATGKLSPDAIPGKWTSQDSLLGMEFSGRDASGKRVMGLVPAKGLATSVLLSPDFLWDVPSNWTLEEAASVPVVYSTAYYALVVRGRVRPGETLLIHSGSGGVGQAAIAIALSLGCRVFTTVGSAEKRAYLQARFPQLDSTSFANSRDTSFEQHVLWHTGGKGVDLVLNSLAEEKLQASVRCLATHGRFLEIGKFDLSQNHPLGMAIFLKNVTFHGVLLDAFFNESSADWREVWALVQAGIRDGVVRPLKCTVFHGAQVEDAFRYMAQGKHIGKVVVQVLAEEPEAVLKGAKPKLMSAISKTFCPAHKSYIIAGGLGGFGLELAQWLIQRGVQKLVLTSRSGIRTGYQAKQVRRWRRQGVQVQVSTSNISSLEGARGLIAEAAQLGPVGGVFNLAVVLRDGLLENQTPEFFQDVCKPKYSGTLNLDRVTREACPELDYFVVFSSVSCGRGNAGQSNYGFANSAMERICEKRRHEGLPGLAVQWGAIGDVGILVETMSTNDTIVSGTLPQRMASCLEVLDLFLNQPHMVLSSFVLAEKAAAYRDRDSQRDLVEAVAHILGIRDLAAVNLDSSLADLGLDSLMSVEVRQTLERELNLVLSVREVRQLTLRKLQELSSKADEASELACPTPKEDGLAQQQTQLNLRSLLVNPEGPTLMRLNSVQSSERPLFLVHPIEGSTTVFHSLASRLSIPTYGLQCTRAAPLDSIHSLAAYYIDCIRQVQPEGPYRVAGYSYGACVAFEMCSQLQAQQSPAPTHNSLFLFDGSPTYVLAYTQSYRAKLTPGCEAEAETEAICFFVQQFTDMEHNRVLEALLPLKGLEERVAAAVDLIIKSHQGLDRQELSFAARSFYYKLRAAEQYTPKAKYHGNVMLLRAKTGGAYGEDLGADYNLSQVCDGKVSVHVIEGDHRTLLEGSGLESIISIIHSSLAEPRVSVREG
Disintegrin and metalloproteinase domain-containing protein 17, sequence (P78536 whole entry, the tested form may be a part): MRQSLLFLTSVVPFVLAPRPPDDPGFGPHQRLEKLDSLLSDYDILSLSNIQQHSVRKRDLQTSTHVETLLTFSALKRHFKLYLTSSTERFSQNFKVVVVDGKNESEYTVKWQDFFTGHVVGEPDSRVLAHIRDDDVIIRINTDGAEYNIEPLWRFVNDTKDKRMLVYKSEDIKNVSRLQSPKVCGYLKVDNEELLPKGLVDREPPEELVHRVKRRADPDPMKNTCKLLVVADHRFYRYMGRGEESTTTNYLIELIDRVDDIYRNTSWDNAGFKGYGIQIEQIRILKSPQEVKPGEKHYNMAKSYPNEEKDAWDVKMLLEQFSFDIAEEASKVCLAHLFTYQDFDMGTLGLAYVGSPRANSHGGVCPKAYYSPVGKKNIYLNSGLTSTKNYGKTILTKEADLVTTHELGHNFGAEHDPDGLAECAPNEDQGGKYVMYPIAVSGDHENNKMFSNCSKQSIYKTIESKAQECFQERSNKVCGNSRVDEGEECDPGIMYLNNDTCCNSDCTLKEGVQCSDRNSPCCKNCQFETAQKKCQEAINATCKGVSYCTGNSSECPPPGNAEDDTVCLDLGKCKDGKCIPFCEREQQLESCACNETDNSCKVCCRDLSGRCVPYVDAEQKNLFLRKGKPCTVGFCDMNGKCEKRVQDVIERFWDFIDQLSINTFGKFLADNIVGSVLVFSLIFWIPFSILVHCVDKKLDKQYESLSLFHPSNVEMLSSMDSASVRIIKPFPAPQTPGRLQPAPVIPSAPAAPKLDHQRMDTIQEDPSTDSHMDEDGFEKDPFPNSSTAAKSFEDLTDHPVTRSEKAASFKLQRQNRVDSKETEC
Albumin, sequence (P02769 whole entry): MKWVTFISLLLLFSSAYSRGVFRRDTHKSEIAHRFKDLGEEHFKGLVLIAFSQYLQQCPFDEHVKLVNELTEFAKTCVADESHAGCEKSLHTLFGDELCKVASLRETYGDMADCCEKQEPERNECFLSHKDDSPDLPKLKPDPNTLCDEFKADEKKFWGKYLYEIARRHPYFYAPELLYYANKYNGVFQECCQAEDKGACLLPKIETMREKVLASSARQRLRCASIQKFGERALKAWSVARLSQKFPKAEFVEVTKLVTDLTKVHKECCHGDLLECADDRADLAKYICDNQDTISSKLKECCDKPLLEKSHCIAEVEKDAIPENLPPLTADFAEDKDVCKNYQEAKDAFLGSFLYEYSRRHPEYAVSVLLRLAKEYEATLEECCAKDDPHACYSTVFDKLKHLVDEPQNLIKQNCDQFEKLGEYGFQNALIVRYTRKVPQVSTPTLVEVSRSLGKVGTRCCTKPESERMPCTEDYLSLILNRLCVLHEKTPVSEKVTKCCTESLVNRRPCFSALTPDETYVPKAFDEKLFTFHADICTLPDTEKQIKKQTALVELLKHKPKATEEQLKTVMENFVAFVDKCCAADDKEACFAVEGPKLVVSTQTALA
FAD-linked sulfhydryl oxidase ALR, sequence (P55789 whole entry): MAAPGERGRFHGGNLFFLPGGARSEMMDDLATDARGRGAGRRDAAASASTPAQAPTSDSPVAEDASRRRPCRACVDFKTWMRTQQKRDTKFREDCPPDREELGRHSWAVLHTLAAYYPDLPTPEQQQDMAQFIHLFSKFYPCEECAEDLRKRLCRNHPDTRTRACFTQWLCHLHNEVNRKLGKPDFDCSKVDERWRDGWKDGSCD

O=S(=O)(c1ccc(-c2csc(-c3cccnc3)n2)cc1)N1CCCC1
AC50 [1]: 0.268 µM (active) | IC50 (Fatty acid synthase): 1.62 µM (active)

CCN(CC(=O)Nc1ccccc1C(F)(F)F)C(=O)c1ccc2c(=O)n3c(nc2c1)CCC3
AC50 [2]: > 30 µM (inactive)

CSc1oc(-c2ccco2)nc1S(=O)(=O)c1ccccc1
IC50 (Protein Tat): > 100 µM (active)

COc1cccc(NC(=O)Nc2nc(SC(C)(C)C)ns2)c1
EC50 (Streptokinase A): 9.69 µM (active) | CC50 (Vero): 7.41 µM (active) | EC50 (Streptococcus): > 50 µM (not active) | CC50 [3]: 7.82 µM (active) | EC50 [4]: 9.49 µM (active)

Cc1ccc(CCN2CC(C(=O)NCCN(C)C)CC2=O)cc1 (stereo not drawn)
AC50 [2]: > 30 µM (inactive)

C[C@H](CO)N1C[C@H](C)[C@H](CN(C)C(=O)Nc2cccc3ccccc23)OCc2cnnn2CCCC1=O
AC50 [2]: 2.28 µM (active)

Fc1cccc(/C=N/Nc2[nH]cnc3ncnc2-3)c1
AC50 [5]: 10.1 µM (active) | EC50 [6]: > 120 µM (not active) | EC50 (H4): > 120 µM (not active) | EC50 [7]: 40.8 µM (active)

C/C(=N\N=C(/N)SC1CC(=O)N(c2ccc(Br)cc2)C1=O)c1cccs1 (stereo not drawn)
EC50 (Streptokinase A): 9.08 µM (active) | IC50 [8]: > 69.5 µM (inactive) | EC50 (Streptococcus): 19.1 µM (active) | EC50 [4]: 6.72 µM (active)

COc1ccc(CC(=O)N/N=C/c2cc([N+](=O)[O-])cc(Br)c2O)cc1
EC50 (Streptokinase A): > 150 µM (not active) | IC50 (Albumin): > 94.1 µM (inactive) | EC50 (Streptococcus): 6.89 µM (active) | EC50 [4]: 3.53 µM (active)

C#C[C@]1(O)CC[C@H]2[C@@H]3CCc4cc(OC5CCCC5)ccc4[C@H]3CC[C@@]21C [QUINESTROL]
EC50 [9]: > 60 µM (not active) | EC50 [6]: > 120 µM (not active) | IC50 [10]: 17.6 µM (inactive) | EC50 (H4): > 120 µM (not active) | EC50 [11]: 4.43 µM (active) | EC50 (Streptococcus): 4.17 µM (active) | CC50 [3]: > 40 µM (active) | IC50 [12]: > 40 µM (inactive) | EC50 [7]: > 120 µM (not active) | EC50 [4]: 1.94 µM (active)
